In patent US20080261978A1, “Chemokine receptor modulators” (priority 2007, published 2008):
pIC50: −log10 of the molar value.

Legend:
[1] = cited from earlier work
T-tropic HIV = experiment: Phenoscreen HIV cellular entry inhibition assay (Monogram Biosciences); details: Human immunodeficiency virus 1, read-out: IC50 value for viral entry inhibition

SMILES	side effect in clinical study [1]	pIC50 (T-tropic HIV)
c1cc(CN2CCCNCCNCCCNCC2)ccc1CN1CCCNCCNCCCNCC1 [AMD3100]	cardiac-related side effect	
O=S(=O)(NC1CCCc2ccccc21)c1ccc(CNCc2ccccn2)cc1 (centres unmarked) [DE, 4-((pyridin-2-ylmethylamino)methyl)-N-(1,2,3,4-tetrahydronaphthalen-1-yl)benzenesulfonamide]		≥ 5.00
O=S(=O)(c1ccc(CNCc2ccccn2)cc1)N(Cc1ccccc1)Cc1nc2ccccc2[nH]1 [DH, N-((1H-benzo[d]imidazol-2-yl)methyl)-N-benzyl-4-((pyridin-2-ylmethylamino)methyl)benzenesulfonamide]		≥ 5.00
O=S(=O)(c1ccc(CNCCCN2CCOCC2)cc1)N(Cc1ccccc1)Cc1ccccc1 [DX, N,N-dibenzyl-4-((3-morpholinopropylamino)methyl)benzenesulfonamide]		≥ 5.00
CCNCc1ccc(S(=O)(=O)N(Cc2ccccc2)Cc2ccccc2)cc1 [DZ, N,N-dibenzyl-4-((ethylamino)methyl)benzenesulfonamide]		≥ 5.00
